Measurements published in publication PMC3110694 (Science (New York, N.Y.), 2010).
“Also recorded” adds a separate entry of the source.

Legend:
Balb/cJ mice = experiment: CPT-11-induced delayed diarrhea and intestinal damage in mice
[1] = biological target: β-glucuronidase activity in cultured E. coli cells (Escherichia coli, UniProt P05804); experiment: β-glucuronidase activity in living E. coli cells; assay type: cell-based
E. coli β-glucuronidase = E. coli β-glucuronidase (Escherichia coli, UniProt P05804); experiment: E. coli β-glucuronidase in vitro inhibition assay; assay type: biochemical; conditions: errors SD, N = 3
E. coli β-glucuronidase, sequence (P05804 whole entry): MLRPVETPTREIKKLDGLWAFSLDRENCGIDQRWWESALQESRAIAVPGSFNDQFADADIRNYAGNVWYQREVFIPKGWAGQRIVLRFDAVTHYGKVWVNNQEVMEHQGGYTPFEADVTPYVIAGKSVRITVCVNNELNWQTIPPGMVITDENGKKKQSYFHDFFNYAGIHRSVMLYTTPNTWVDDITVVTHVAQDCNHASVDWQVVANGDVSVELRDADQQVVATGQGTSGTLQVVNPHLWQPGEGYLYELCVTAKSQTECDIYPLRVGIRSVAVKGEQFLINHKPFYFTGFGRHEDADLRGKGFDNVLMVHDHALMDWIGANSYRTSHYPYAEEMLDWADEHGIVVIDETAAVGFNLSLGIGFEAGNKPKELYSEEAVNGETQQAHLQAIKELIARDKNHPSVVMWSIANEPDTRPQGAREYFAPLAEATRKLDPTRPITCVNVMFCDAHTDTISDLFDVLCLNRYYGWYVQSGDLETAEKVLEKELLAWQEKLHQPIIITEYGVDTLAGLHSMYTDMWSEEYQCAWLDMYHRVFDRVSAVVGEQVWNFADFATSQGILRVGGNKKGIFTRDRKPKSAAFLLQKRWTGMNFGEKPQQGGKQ

β-glucuronidase activity in cultured E. coli cells, sequence (P05804 whole entry): as above

| Compound | diarrhea and bloody diarrhea, CPT-11 only (Balb/cJ mice; group 3: CPT-11 50 mg per kg i.p. once daily, no Inhibitor 1, days 8 to 10) | colonic tissue histology, CPT-11 only (Balb/cJ mice; group 3: CPT-11 only) | euthanasia, CPT-11 only (Balb/cJ mice; group 3: CPT-11 only, by day 11) | EC50 ([1]; E. coli cell-based, errors SD, N = 3) | effect on β-glucuronidase activity in cultured E. coli cells ([1]; cultured E. coli, listed as GDL) | IC50 (E. coli β-glucuronidase) | Ki (E. coli β-glucuronidase) |
| --- | --- | --- | --- | --- | --- | --- | --- |
| CCc1c2c(nc3ccc(OC(=O)N4CCC(N5CCCCC5)CC4)cc13)-c1cc3c(c(=O)n1C2)COC(=O)[C@]3(O)CC [CPT-11, irinotecan, reference compound] | all the animals; also recorded: produced bloody diarrhea starting after 8 days and peaking at 10 days | destroyed these tissues; also recorded: highly disrupted tissues | all the group 3 animals had to be euthanized |  |  |  |  |
| glucaro-δ-lactam [reference compound] |  |  |  | N.E. | did not disrupt β-glucuronidase activity; also recorded: no effect | 26.4 ± 0.483 µM | 7.75 ± 0.475 µM |
